Assays:
Serine protease 1 [1] = biological target: T1, Serine protease 1 (Homo sapiens, UniProt P07477); assay: In vitro for inhibition of serine protease Trypsin.
Coagulation factor X [2] = biological target: T2, Coagulation factor X (Homo sapiens, UniProt P00742)
Description: In vitro for inhibition of Coagulation factor X

Prothrombin [3] = biological target: T3, Prothrombin (Homo sapiens, UniProt P00734); assay: In vitro for inhibition of serine protease thrombin(FIIa).
Coagulation factor X [4] = biological target: T2, Coagulation factor X; assay: compound was tested in vitro for inhibition of Coagulation factor X; inactive
Trypsin II = biological target: T4, Trypsin II (Bos taurus, UniProt Q29463); assay: compound was tested in vitro for inhibition of serine protease Trypsin.
T4 sequence (Q29463 whole entry): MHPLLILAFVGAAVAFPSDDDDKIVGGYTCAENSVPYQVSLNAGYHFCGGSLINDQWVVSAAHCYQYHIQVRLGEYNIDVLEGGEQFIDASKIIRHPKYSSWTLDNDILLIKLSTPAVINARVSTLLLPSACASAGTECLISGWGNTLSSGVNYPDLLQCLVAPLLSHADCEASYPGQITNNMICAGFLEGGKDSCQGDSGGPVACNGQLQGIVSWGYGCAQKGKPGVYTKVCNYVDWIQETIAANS

Prothrombin [5] = biological target: T3, Prothrombin; assay: compound was tested in vitro for inhibition of serine protease thrombin(FIIa).
Coagulation factor X [6] = biological target: T2, Coagulation factor X; assay: compound was tested in vitro for inhibition of Coagulation factor X
Serine protease 1 [7] = biological target: T1, Serine protease 1; assay: compound was tested in vitro for inhibition of serine protease Trypsin; inactive
Prothrombin [8] = biological target: T3, Prothrombin; assay: compound was tested in vitro for inhibition of serine protease thrombin (FIIa); inactive

T2 sequence (P00742 41-179 limits assumed): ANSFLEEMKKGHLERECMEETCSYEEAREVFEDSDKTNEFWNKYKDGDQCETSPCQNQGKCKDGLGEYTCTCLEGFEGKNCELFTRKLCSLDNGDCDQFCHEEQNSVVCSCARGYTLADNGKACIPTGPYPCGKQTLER
T2 sequence (P00742 235-488 limits assumed): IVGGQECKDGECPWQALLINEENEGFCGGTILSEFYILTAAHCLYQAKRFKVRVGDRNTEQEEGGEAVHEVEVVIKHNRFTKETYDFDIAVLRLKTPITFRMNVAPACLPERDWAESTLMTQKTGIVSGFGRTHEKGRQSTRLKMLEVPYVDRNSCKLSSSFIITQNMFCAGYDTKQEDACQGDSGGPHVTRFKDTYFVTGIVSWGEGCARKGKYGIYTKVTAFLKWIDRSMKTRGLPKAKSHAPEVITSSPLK
T1 sequence (P07477 whole entry): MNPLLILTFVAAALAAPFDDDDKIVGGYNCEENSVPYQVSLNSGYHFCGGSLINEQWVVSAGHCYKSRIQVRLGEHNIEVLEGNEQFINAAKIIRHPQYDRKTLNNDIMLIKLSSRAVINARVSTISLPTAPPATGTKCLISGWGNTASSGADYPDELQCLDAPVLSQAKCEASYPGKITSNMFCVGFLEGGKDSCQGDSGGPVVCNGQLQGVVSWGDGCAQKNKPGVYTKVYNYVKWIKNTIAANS

Structure (SMILES)	IC50 (Serine protease 1 [1]) [nM]	IC50 (Coagulation factor X [2]) [nM]	IC50 (Prothrombin [3]) [nM]	further results
C[C@H](C(=O)N[C@H]1CCCC(C(=N)N)C1O)N1CCCC[C@H](NS(=O)(=O)Cc2ccccc2)C1=O (stereo not given in full)	> 2500	–	> 2500	IC50 (Coagulation factor X [4]): Not Active
CCCC(CCC)C(=O)N[C@@H](CC(=O)OC)C(=O)N1CCC[C@@H]1C(=O)N[C@H]1CCCC(C(=N)N)C1O (stereo not given in full)	1.36	–	1.1	–
CN[C@H](Cc1ccccc1)C(=O)N1CCC[C@@H]1C(=O)N[C@H]1CCCC(C(=N)N)C1O (stereo not given in full)	1.52	> 2500	0.7	–
N=C(N)C1CCC[C@H](NC(=O)CN2CCC[C@H](NS(=O)(=O)c3cccc4ccccc34)C2=O)[C@@H]1O (stereo not given in full)	–	2500	111	IC50 (Trypsin II): 1020 nM
COC(=O)c1ccccc1CS(=O)(=O)N[C@H]1CCCCN(CC(=O)N[C@H]2CCCC(C(=N)N)C2O)C1=O (stereo not given in full)	137	471	1.12	Ki (Prothrombin [5]): 0.85 nM
N=C(N)C1CCC[C@H](NC(=O)CN2CCCC[C@H](NS(=O)(=O)c3ccccc3)C2=O)C1O (stereo not given in full)	16.6	479	14.2	–
N=C(N)C1CCC[C@H](NC(=O)CN2CCC[C@@H](NS(=O)(=O)Cc3ccccc3)C2=O)C1O (stereo not given in full)	467	2500	157	–
N=C(N)C1CCCC(NC(=O)CN2CC[C@H](NS(=O)(=O)Cc3ccccc3)C2=O)C1O (stereo not given in full)	–	–	–	IC50 (Prothrombin [5]): 125 nM; IC50 (Trypsin II): 538 nM; IC50 (Coagulation factor X [6]): 2500 nM
N=C(N)C1CCC[C@H](NC(=O)CN2CCC[C@H](NC(=O)NS(=O)(=O)c3ccccc3)C2=O)C1O (stereo not given in full)	–	–	–	IC50 (Coagulation factor X [4]): Not Active; IC50 (Serine protease 1 [7]): Not Active; IC50 (Prothrombin [8]): Not Active
N=C(N)C1CCC[C@H](NC(=O)CN2CCCC[C@H](NS(=O)(=O)Cc3ccccc3)C2=O)C1O (stereo not given in full)	74.5	20.6	0.71	Ki (Prothrombin [5]): 0.54 nM
N=C(N)C1CCC[C@H](NC(=O)CN2CCC[C@H](NS(=O)(=O)Cc3ccccc3)C2=O)C1O (stereo not given in full)	791	2500	6.2	Ki (Prothrombin [5]): 1.01 nM

Continued, in another order:

IC50 (Serine protease 1 [1]) [nM]	IC50 (Coagulation factor X [2]) [nM]	IC50 (Prothrombin [3]) [nM]	Structure (SMILES)	further results
147	1950	235	N=C(N)C1CCC[C@H](NC(=O)CN2CCC[C@H](NS(=O)(=O)NC3CCCCC3)C2=O)C1O (stereo not given in full)	–
–	–	2500	N=C(N)C1CCC[C@H](NC(=O)CN2CCC[C@H](NC(=O)Cc3ccccc3)C2=O)C1O (stereo not given in full)	IC50 (Trypsin II): > 2500 nM; IC50 (Coagulation factor X [4]): Not Active
2500	2500	420	N=C(N)C1CCC[C@H](NC(=O)CN2CCC[C@H](NS(=O)(=O)CCc3ccccc3)C2=O)C1O (stereo not given in full)	–
–	2500	709	CCCCS(=O)(=O)N[C@H]1CCCN(CC(=O)N[C@H]2CCCC(C(=N)N)C2O)C1=O (stereo not given in full)	IC50 (Trypsin II): 2500 nM
16800	2500	–	CC(C)(C)OC(=O)N[C@H]1CCCN(CC(=O)N[C@H]2CCCC(C(=N)N)C2O)C1=O (stereo not given in full)	–
770	1100	159	N=C(N)C1CCC[C@H](NC(=O)CN2CCC[C@H](NS(=O)(=O)c3ccccc3)C2=O)C1O (stereo not given in full)	–
–	2500	286	CC(C(=O)N[C@H]1CCCC(C(=N)N)C1O)N1CCC[C@H](NS(=O)(=O)Cc2ccccc2)C1=O (stereo not given in full)	IC50 (Trypsin II): 293 nM
